Reference: patent US20120318262A1 (priority 2011, published 2012)

What was measured:
[1] = test system: Wnt signaling; experiment: TOPflash reporter assay, HEK 293 STF cells treated with Wnt3a; type: cell-based
Experimental: Graph represents mean±s.e.m of TOPflash signal normalized to cell number (performed in quadruplicate). […] Data shown represent mean of four independent amplification reactions, graphed as relative expression to unstimulated cells. Expression levels were normalized to β-actin mRNA. Error bars, RQ values with 95% confidence.
(§1) CK1α immunoprecipitated from lysates was incubated with purified β-catenin (100 nM) in kinase assay containing (^γ32P)ATP. Samples were processed for SDS-PAGE/autoradiography. As control, immunoprecipitates were treated with the CK1 inhibitor, CKI-7 (1 μM). […] HA immunoprecipitates were analyzed by LCMS. Graph represents mean±s.e.m. of relative abundance of pyrvinium normalized to bead control (performed in triplicate). […] (FIG. 9C) Structure of VU-WS113. […] (FIG. 9F) CK1α (100 nM) was incubated with recombinant casein (100 nM) in the presence or absence of compounds in a kinase reaction containing [γ32P]ATP. […] Mean±s.e.m. is shown (performed in triplicates).

[2] = biological target: CK1α (Homo sapiens, UniProt P48729); experiment: kinase activity of purified recombinant CK1α (Tau, casein substrates; kinase panel); type: biochemical
CK1α, sequence (P48729 whole entry): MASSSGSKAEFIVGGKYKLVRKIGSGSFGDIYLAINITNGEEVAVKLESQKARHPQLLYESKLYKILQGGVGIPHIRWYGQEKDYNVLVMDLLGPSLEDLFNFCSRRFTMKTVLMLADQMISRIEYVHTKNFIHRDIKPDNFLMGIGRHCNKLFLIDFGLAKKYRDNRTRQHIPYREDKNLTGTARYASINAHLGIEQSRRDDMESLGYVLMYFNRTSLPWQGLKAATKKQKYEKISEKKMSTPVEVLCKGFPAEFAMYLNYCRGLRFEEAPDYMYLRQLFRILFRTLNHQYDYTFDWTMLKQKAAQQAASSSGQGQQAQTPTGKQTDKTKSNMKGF
Experimental: as §1, with “LCMS.” for “LCMS. Graph represents mean±s.e.m. of relative abundance of pyrvinium normalized to bead control (performed in triplicate).”

[3] = test system: C57Bl/6 mice; experiment: 2 mm ear punch wound model; type: in vivo; conditions: day 30
Text: (FIG. 8A) Low magnification (4×) view of H&E stained slide showing epithelial repair of wounded skin treated with 211 at 30 days after injury. […] (FIGS. 8C-D) represent H&E of low (10×) and high (20×) magnification view of pyrvinium-treated ears. (FIGS. 8E-F) Trichrome blue staining showing low (FIG. 8E, 10×) and high power (FIG. 8F, 20×) view of pyrvinium-repaired ear.
The ears of six month old C57BL/6 mice were wounded by a 2 mm ear punch (n=3). […] The wounds were monitored over a period of 1 month and the digital photographs of the healing ears were taken periodically. […] The mice were sacrificed at day 30 and histological analysis of the wounded ear was performed.
FIGS. 8C-D show H&E stained slide of low (10×) and high (20×) magnifications of pyrvinium-treated ears.

[4] = test system: C57Bl/6 mice; experiment: myocardial infarct model, daily IP injection, Ki67/Sca1 histology
Text: Myocardial infarcts were induced in male C57Bl/6 mice by coronary ligation. A sham-injured cohort underwent all aspects of the procedure except ligation of the coronary artery. […] Mice were sacrificed (n=3 for each time point and each condition) on days 7, 9 and 15 after injury. Hearts were isolated for histologic analysis.

[5] = test system: C57Bl/6 mice; type: in vivo; conditions: p<0.05
Text: FIGS. 5A-D. Mouse MI model. Representative mouse EKG tracings pre (FIG. 5A) and post (FIG. 5B) coronary artery ligation. […] Arrows mark lateral and posterior left ventricle (LV). LVIDD, LVIDS=LV internal diameter at systole and […], respectively. RV=right ventricle. […] Cardiac dimensions were obtained from 2-D guided M-mode images (100 frames/sec) and were read blinded using short axis and a parasternal long-axis views with the leading edge method. All echo measurements were averaged over 3 consecutive beats on unsedated mice at 7 and 30 days after infarction. Statistical significance assessed by the Wilcoxon rank sum test.
Ventricular remodeling and cardiac functional parameters will be assessed by echo.
Mammalian cardiomyocytes irreversibly withdraw from the cell cycle soon after birth and undergo terminal differentiation. […] Therefore, cardiac injury causes permanent myocardial loss and cardiac dysfunction. […] Proliferation was assessed by immunostaining for Ki-67.

| activation of CK1α [2] | Compound | inhibition of TOPflash / Wnt signaling ([1]; Wnt3a) | histology of wounded ear ([3]; listed as Cmpd 113) | histology of wounded ear ([3]; listed as compound 113) | Ki-67+ cells co-labeled with Sca1+ antibody ([4]; 40 μg/kg IP) | Sca1+ CPCs share of Wnt-inhibitor responsive population ([4]; 40 μg/kg IP) [%] | increase in left ventricular, peri-infarct Ki67+ cells ([4]; 40 μg/kg IP daily through day 6, 7-9 days after MI) | post-infarct proliferation of cardiac progenitors ([4]; 7 d after injury, control C-211) | IC50 ([1]; Wnt3a-conditioned media, 24 hours, read-out: IC50 of TOPflash (Wnt signaling) inhibition) [µM] | average difference in fractional shortening between days 7 and 30 [5] |
| --- | --- | --- | --- | --- | --- | --- | --- | --- | --- | --- |
| activate CK1α | Cc1cc(C(=O)Nc2ccc3cc(CN4CCOCC4)ccc3n2)c(C)n1-c1ccccc1 [VU-WS113, 2,5-dimethyl-N-(6-(morpholinomethyl)quinolin-2-yl)-1-phenyl-1H-pyrrole-3-carboxamide] | retained the capacity to inhibit Wnt signaling | injured hole was repaired | Injured hole was repaired | at least 50% | > 60 | 10-13 fold | significantly enhances post-infarct proliferation of cardiac progenitors | – | – |
| – | Cc1cc(/C=C/c2ccc3cc(N(C)C)ccc3[n+]2C)c(C)n1-c1ccccc1 [pyrvinium, 6-(Dimethylamino)-2-[2-(2,5-dimethyl-1-phenyl-1H-pyrrol-3-yl)ethenyl]-1-methylquinolinium, reference compound] | – | – | – | – | – | – | – | ~0.01 | 22.3±5.2 |
